Results reported in patent publication US6967075B2 (priority 2000, dated 2005).
“Also recorded” adds a separate entry of the source.

What was measured:
HCV NS5B [1] = target: T1, HCV NS5B (Hepatitis C virus genotype 1b, UniProt P26663); test: Nucleotide incorporation assay using end-labeled primers; format: biochemical; conditions: 5 μM template, 10 μM end-labeled primer, 100 μM NTP, 30° C. for 30 min
Procedure: Nucleotide incorporation assay using end-labeled primers. A standard nucleotide incorporation reaction was performed in a 20 μl volume, containing 50 mM HEPES (pH 7.3), 10 mM β-mecaptoethanol, 50 mM NaCl, 5 mM MgCl2, 5 μM of template RNA, 10 μM of end-labeled primer, 3 to 5 μM of polymerase protein and 100 μM of NTP substrate, as described. Single nucleotide incorporation by HCV replicase was tested using radiolabeled diguanylate (^33pGpG) as a primer and three RNA templates corresponding to SEQ ID NO: 11 [(ACC)7], SEQ ID NO: 9 [(tJCC)7], and SEQ ID NO: 10 [(GCC)7]. Reactions involved ^33pGpG primer alone and with (1) (ACC)7 RNA as the template plus either no NTP, 100 μM UTP or 100 μM ATP, (2) (UCC)7 RNA as the template plus either no NTP, 100 μM ATP or 100 μM CTP, and (3) (GCC)7 RNA as the template plus either no NTP, 100 μM CTP or 100 μM ATP. To show the efficiency of guanylate primers of different length in priming nucleotide incorporation, four template-primer pairs were tested in a standard primer-extension assay: […] (SEQ ID NO: 10)/^33pGG; […] (SEQ ID NO: 12)/^33pGGG; […],(SEQ ID NO-13)/^33pGGGG (SEQ ID NO: 32); and […] (SEQ ID NO: 7)/^33pGpqGG (SEQ ID NO: 33). Reactions were performed using 100 μM of CTP or without a nucleotide substrate.
Reactions contained (UCC)7 alone, (UCC)7 plus 100 μM of ATP, (UCC)6AAA alone, or (UCC)6AAA plus 100 μM of ATP. In addition, RNAs of SEQ ID NOS: 11, 30 and 31 were tested for single-nucleotide incorporation with ^33pGpG as the primer.
To show the minimum length requirement for a template RNA of the invention RNA templates of decreasing length (21 to 4-nt), e.g., SEQ ID NOS: 8 and 14-20 were tested for the ability to direct single-nucleotide incorporation using ^33pGpG as the primer. All reactions contained 100 μM of ATP and one template RNA. Multiple cycles of nucleotide incorporation were performed using a 10-mer RNA and ^33pGpG as the primer. Reactions contained either 100 μM of ATP alone, or 100 μM each of ATP and CTP, or 100 μM each of ATP, CTP and GTP. The reactions were quenched at different times from 15 to 900 seconds.
Various dinucleotide primers for RNA synthesis and nucleotide incorporation using HCV 3′ terminal sequences as template were used. The following RNA templates were used: 5′ AAAAAACAGUCC 3′ (SEQ ID NO: 17), 5′ AAAACAGUGC 3′ (SEQ ID NO: 21), 5′ AAAAAACAGUCG 3′ (SEQ ID NO: 22), 5′ AAAAAACAGUGG 3′ (SEQ ID NO: 23), 5′ AAAAAACAGUAC 3′ (SEQ ID NO: 24), 5′ AAAAAACAGUCA 3′ (SEQ ID NO: 25), which differ by two residues at the 3′ terminal positions. Dinucleotide primers, ^33pGpG, ^33pGpC, ^33pCpG, ^33pCpC, ^33pGpU and ^33pUpG, were paired with respective templates in the absence or presence of 100 μM ATP substrate. RNA templates, 3′(+) and 3′(−), consisted of the 3′ terminal sequences of positive-strand and negative-strand HCV genome, respectively. Primers ^33pApC and ^33pGpC were used for 3′(+) and 3′(−) RNA, respectively, in the absence of nucleotide substrate and in the presence of ATP or CTP.
Reaction mixtures were incubated at 30° C. for 30 min, followed by phenol and chloroform extraction and ethanol precipitation in the presence of glycogen carrier. Product was dissolved in a urea/TBE sample buffer (Novex, San Diego, Calif.) and separated on a 23 to 25% PAGE/6 M Urea/1× TBE gel. The gel was then covered with plastic wrap and exposed to an X-ray film.

HCV NS5B [2] = target: T1, HCV NS5B; format: biochemical
Target sequence in this assay (P26663 2420-2989 limits assumed): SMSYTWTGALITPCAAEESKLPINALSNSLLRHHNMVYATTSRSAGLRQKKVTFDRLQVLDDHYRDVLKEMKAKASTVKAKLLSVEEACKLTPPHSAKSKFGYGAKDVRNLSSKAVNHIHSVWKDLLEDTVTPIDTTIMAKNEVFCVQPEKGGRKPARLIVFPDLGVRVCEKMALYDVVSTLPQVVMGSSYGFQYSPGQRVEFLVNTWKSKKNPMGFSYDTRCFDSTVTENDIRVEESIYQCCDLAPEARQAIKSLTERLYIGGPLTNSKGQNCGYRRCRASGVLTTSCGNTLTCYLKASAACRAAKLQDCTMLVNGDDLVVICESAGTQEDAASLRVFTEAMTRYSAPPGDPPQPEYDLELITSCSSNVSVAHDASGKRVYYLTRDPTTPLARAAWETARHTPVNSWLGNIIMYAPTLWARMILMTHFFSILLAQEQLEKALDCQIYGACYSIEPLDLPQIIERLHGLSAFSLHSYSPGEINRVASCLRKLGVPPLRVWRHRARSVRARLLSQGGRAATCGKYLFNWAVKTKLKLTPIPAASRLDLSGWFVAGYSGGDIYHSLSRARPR

poliovirus 3D RdRp = poliovirus 3D RdRp (Poliovirus type 1, UniProt P03300); conditions: cited from earlier work
HCV NS5B replicase = HCV NS5B replicase (Hepatitis C virus genotype 1b, UniProt P26663); conditions: cited from earlier work
HCV NS5B replicase, sequence (P26663 2420-3010 limits assumed): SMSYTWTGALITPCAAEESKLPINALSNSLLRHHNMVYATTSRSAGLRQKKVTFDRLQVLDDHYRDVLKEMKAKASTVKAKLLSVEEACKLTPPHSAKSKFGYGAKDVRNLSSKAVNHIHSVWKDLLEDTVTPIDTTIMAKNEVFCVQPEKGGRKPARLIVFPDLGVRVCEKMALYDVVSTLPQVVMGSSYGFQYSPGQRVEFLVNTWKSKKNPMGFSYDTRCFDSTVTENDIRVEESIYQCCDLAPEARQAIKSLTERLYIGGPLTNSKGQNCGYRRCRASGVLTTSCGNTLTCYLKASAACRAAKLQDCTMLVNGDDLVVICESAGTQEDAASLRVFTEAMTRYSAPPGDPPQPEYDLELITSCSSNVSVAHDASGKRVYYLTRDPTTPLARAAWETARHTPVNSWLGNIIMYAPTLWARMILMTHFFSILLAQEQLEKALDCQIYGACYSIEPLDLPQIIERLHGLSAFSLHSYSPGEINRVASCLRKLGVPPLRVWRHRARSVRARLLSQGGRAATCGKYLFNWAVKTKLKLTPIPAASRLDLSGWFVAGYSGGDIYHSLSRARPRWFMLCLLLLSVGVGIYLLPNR

poliovirus 3D RdRp, sequence (P03300 1749-2209 limits assumed): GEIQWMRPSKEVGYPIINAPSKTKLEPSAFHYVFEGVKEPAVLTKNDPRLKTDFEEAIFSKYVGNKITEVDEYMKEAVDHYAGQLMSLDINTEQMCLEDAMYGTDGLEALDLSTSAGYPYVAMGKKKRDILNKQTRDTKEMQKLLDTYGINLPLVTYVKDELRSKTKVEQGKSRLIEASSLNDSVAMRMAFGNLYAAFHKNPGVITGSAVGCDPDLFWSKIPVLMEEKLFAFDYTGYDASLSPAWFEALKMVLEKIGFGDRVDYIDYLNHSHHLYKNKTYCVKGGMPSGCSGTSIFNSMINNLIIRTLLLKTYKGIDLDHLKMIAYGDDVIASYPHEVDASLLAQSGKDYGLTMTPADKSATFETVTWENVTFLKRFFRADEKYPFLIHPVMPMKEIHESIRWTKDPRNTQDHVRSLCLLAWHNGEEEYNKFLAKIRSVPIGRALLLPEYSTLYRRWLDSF

Compound	nucleotide incorporation (extension of end-labeled primer) (HCV NS5B [1])	further results
5′ GCCGCCGCCGCCGCCGCCGCC 3′ (GCCGCCGCCGCCGCCGCCGCC; RNA, backbone not given here) [(GCC)7]	only the correct nucleotide, ATP or CTP, resulted in primer extension	
5′ CC ACC ACC ACC ACC ACC ACCA 3′ (CCACCACCACCACCACCACCA; RNA, backbone not given here) [SEQ ID NO: 30]	significant reduction in activity	
5′ C ACCACCACCACCACCACCAC 3′ (CACCACCACCACCACCACCAC; RNA, backbone not given here) [SEQ ID NO: 31]	significant reduction in activity	
GGGGG (RNA, backbone not given here; further chemistry not fully specified) [^33pGGGGG]	detrimental to the activity	
pGpG [GG]	capable of priming nucleotide (AMP) incorporation	nucleotide incorporation (extension of end-labeled primer) (HCV NS5B [1]; listed as 33pGG): supported nucleotide incorporation with the highest efficiency
5′ UCU GCA GAU CAU GU 3′ (UCUGCAGAUCAUGU; RNA, backbone not given here) [SEQ ID NO: 26, 3′ terminus of HCV positive-strand RNA genome]	single-nucleotide incorporation was detected	
5′ GCA UGG GCC C 3′ [sym/sub RNA, reference compound]		extension/utilization of end-labeled RNA (HCV NS5B [2]): no primer extension was observed
CN1C(=O)[C@]23CC4=CC=C[C@H](O)[C@H]4N2C(=O)[C@@]1(CO)SS3 [Gliotoxin, gliotoxin]		inhibition of poliovirus 3D RdRp (poliovirus 3D RdRp): known poliovirus 3D RdRp inhibitor; inhibition of HCV NS5B replicase (HCV NS5B replicase): inhibits HCV NS5B replicase in a dose dependent manner
GGGG (5' 33P label, further chemistry not given here) [^33pGGGG]	detrimental to the activity	
5′ UCCUCCUCCUCCUCCUCCUCC 3′ (UCCUCCUCCUCCUCCUCCUCC; RNA, backbone not given here) [(UCC)7]	only the correct nucleotide, ATP or CTP, resulted in primer extension	
5′ ACCACCACCACCACCACCACC 3′ (ACCACCACCACCACCACCACC; RNA, backbone not given here) [(ACC)7]	single nucleotide incorporation was observed only when UTP was used	
GGG [^33pGGG]	supported nucleotide incorporation with the highest efficiency	
pGpC [GC]	capable of priming nucleotide (AMP) incorporation	
5′ AUC AGG GGG CUG GC 3′ (AUCAGGGGGCUGGC; RNA, backbone not given here) [SEQ ID NO: 27, 3′ terminus of HCV negative-strand RNA genome]	single-nucleotide incorporation was detected; also recorded: higher overall activity	
